Assay [1] concerns the target T1, TBK1 (Homo sapiens, UniProt Q9UHD2).
T1 sequence (Q9UHD2 1-729): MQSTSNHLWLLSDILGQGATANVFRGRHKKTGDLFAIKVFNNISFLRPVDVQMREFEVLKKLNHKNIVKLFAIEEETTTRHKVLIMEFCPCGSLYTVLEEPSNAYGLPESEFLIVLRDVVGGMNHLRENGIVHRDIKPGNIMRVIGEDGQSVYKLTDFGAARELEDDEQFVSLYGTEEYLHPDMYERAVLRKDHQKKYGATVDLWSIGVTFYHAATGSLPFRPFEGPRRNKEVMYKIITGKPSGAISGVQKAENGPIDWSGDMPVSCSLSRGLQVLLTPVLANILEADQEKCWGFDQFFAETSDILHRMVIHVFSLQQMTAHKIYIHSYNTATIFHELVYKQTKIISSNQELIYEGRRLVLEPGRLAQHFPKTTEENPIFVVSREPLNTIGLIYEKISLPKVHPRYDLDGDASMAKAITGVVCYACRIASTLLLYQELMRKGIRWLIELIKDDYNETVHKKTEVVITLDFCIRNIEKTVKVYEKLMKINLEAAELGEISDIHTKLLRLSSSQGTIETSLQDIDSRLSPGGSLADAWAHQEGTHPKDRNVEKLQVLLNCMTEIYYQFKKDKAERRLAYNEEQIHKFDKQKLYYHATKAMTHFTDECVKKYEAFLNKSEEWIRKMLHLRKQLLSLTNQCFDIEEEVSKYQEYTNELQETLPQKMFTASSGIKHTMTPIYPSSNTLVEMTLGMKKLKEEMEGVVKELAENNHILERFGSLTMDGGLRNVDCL
In words: TBK biochemical assay. On the procedure:
(§1) Test compounds were transferred into Labcyte polypropylene 384 well plates (P055-25) and diluted to 3 mM using DMSO. […] 100 uM of a reference compound (1 uM final high concentration). Backfilling was performed if necessary so that all wells contain 1% DMSO final:
add 75 nl DMSO/well into columns 1, 2 and 24 using Labcyte Echo. add 75 nl 1.0 mM staurosporine/well into column 23 using Labcyte Echo ([…]) add 4.5 ul enzyme/well using multidrop dispenser add 3 ul substrate/well using multidrop dispenser incubate at 25° C. in Heidolph incubator for 90 min. add 7.5 ul 2× stop buffer using multidrop dispenser read on labchip ez reader II using TBK1.job
(§2) Raw data files were opened in the Caliper LabChip Reviewer program (Version 3.0.265.0 SP2) and peak assignments were adjusted to reflect “substrate first” with the software's post-run analysis options. A spline-fit baseline was applied using the software's analysis algorithm.

For assay [2], the target named is T2, IKKε (Homo sapiens, UniProt Q14164).
T2 sequence (Q14164 1-716): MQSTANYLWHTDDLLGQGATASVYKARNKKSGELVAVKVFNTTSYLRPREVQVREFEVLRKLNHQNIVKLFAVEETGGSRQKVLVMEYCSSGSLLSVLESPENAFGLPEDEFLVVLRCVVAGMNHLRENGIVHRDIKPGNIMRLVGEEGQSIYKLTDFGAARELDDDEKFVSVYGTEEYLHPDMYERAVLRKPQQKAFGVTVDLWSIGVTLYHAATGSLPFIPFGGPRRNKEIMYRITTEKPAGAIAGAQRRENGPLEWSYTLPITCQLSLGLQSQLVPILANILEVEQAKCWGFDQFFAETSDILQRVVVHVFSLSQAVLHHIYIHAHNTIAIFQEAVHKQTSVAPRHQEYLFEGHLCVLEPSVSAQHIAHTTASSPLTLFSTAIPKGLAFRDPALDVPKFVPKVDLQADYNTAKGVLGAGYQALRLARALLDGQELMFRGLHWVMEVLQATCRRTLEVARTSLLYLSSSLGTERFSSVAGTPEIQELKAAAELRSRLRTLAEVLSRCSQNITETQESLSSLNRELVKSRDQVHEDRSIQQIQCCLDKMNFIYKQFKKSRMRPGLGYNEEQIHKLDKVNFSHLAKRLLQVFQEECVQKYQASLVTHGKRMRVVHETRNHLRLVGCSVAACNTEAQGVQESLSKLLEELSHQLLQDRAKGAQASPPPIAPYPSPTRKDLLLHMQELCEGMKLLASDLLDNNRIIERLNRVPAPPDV
In words: IKKε biochemical assay. The conditions noted are these: 30 uM top concentration, 90 min at 25° C., LabChip EZ Reader II. On the procedure: as §1
add 75 nl DMSO/well into columns 1, 2 and 24 using Labcyte Echo. add 75 nl 1.0 mM staurosporine/well into column 23 using Labcyte Echo (10 uM final) add 4.5 ul enzyme/well using multidrop dispenser add 3 ul substrate/well using multidrop dispenser incubate at 25° C. for 90 min. add 7.5 ul 2× stop buffer read on labchip ez reader II using IKKε.
as §2

Setting [3] is: 10 point 1:4 dose response, 30 uM top concentration, 90 min at 25° C., LabChip EZ Reader II, read-out: TBK1_IC50.
The mark [4] stands for this setting: 10 point 1:4 dose response, read-out: IKKε_IC50.

Like-named read-outs stand apart in the source and are kept apart here.

With `COc1nc(Nc2nccc(-c3ccc(OC4CCN(C(=O)[C@@H](C)O)CC4(F)F)c(C#N)c3)n2)ccc1N1CCN(C)CC1C` (stereo in doubt) [Example 110, 2-[3,3-Difluoro-1-((R)-2-hydroxy-propionyl)-piperidin-4-yloxy]-5-{2-[5-((S)-2,4-dimethyl-piperazin-1-yl)-6-methoxy-pyridin-2-ylamino]-pyrimidin-4-yl}-benzonitrile], the IC50 in assay [1] (setting [3]) and in assay [2] (setting [4]) was less than 100 nM in each case. On to `COc1nc(Nc2nccc(-c3ccc(OC4CCN(C(=O)[C@H](C)O)CC4(F)F)c(C#N)c3)n2)ccc1N1CCN(C)CC1C` (stereo in doubt) [Example 112, 2-[3,3-Difluoro-1-((S)-2-hydroxy-propionyl)-piperidin-4-yloxy]-5-{2-[5-((S)-2,4-dimethyl-piperazin-1-yl)-6-methoxy-pyridin-2-ylamino]-pyrimidin-4-yl}-benzonitrile], for which the IC50 in assay [1] (setting [3]) and in assay [2] (setting [4]) was less than 100 nM each time.

As for `COc1nc(Nc2nccc(-c3ccc(OC4CCN(C(=O)C(C)O)CC4(F)F)c(C#N)c3)n2)ccc1N1CCN(C2COC2)CC1` (stereo in doubt) [Example 261, 2-([3,3-difluoro-1-[(2S)-2-hydroxypropanoyl]piperidin-4-yl]oxy)-5-[2-([6-methoxy-5-[4-(oxetan-3-yl)piperazin-1-yl]pyridin-2-yl]amino)pyrimidin-4-yl]benzonitrile], the IC50 in assay [1] (setting [3]) and in assay [2] (setting [4]) was less than 100 nM throughout. For the molecule `COc1nc(Nc2ncc(F)c(-c3ccc(O[C@H]4CCN(C(=O)C(C)O)C[C@H]4F)c(C#N)c3)n2)ccc1N1CCN(C2COC2)CC1` (stereo in doubt) [Example 297, 2-{[3-fluoro-1-(2-hydroxypropanoyl)piperidin-4-yl]oxy}-5-[5-fluoro-2-({6-methoxy-5-[4-(oxetan-3-yl)piperazin-1-yl]pyridin-2-yl}amino)pyrimidin-4-yl]benzonitrile], the IC50 in assay [1] (setting [3]) and in assay [2] (setting [4]) was less than 100 nM throughout. In the case of `COc1cc(Nc2nccc(-c3ccc(OC4CCN(C(=O)C(C)O)CC4(F)F)c(C#N)c3)n2)ccn1` (stereo in doubt) [Example 327, 2-([3,3-difluoro-1-[(2S)-2-hydroxypropanoyl]piperidin-4-yl]oxy)-5-[2-[(2-methoxypyridin-4-yl)amino]pyrimidin-4-yl]benzonitrile], the IC50 in assay [1] (setting [3]) and in assay [2] (setting [4]) was less than 100 nM throughout. As for `COc1cccc(Nc2nccc(-c3ccc(OC4CCN(C(=O)C(C)O)CC4(F)F)c(C#N)c3)n2)n1` (stereo in doubt) [Example 328, 2-([3,3-difluoro-1-[(2S)-2-hydroxypropanoyl]piperidin-4-yl]oxy)-5-[2-[(6-methoxypyridin-2-yl)amino]pyrimidin-4-yl]benzonitrile], the IC50 in assay [1] (setting [3]) and in assay [2] (setting [4]) was less than 100 nM each time. As to `COc1nc(Nc2nccc(-c3ccc(OC4CCOCC4)c(C#N)c3)n2)ccc1C(=O)N(C)C` [Example 1, 6-([4-[3-cyano-4-(oxan-4-yloxy)phenyl]pyrimidin-2-yl]amino)-2-methoxy-N,N-dimethylpyridine-3-carboxamide], the IC50 in assay [1] (setting [3]) and in assay [2] (setting [4]) was less than 100 nM each time. For the molecule `COc1nc(Nc2nccc(-c3ccc(OC4CCOCC4)c(C#N)c3)n2)ccc1C(=O)NCCO` [Example 2, 6-([4-[3-cyano-4-(oxan-4-yloxy)phenyl]pyrimidin-2-yl]amino)-N-(2-hydroxyethyl)-2-methoxypyridine-3-carboxamide], the IC50 in assay [1] (setting [3]) and in assay [2] (setting [4]) was less than 100 nM throughout. As for `COc1nc(Nc2nccc(-c3ccc(OC4CCOCC4)c(C#N)c3)n2)ccc1C(=O)N(C)CCO` [Example 3, 6-([4-[3-cyano-4-(oxan-4-yloxy)phenyl]pyrimidin-2-yl]amino)-N-(2-hydroxyethyl)-2-methoxy-N-methylpyridine-3-carboxamide], the IC50 in assay [1] (setting [3]) and in assay [2] (setting [4]) was less than 100 nM throughout. In the case of `COc1nc(Nc2nccc(-c3ccc(OC4CCOCC4)c(C#N)c3)n2)ccc1C(=O)NC[C@H](O)CO` [Example 4, 6-{4-[3-Cyano-4-(tetrahydro-pyran-4-yloxy)-phenyl]-pyrimidin-2-ylamino}-N-((S)-23-dihydroxy-propyl)-2-methoxy-nicotinamide], the IC50 in assay [1] (setting [3]) and in assay [2] (setting [4]) was less than 100 nM in each case. Regarding `COc1nc(Nc2nccc(-c3ccc(OC4CCOCC4)c(C#N)c3)n2)ccc1C(=O)N1CCS(=O)(=O)CC1` [Example 5, 5-{2-[5-(1,1-Dioxo-thiomorpholine-4-carbonyl)-6-methoxy-pyridin-2-ylamino]-pyrimidin-4-yl}-2-(tetrahydro-pyran-4-yloxy)-benzonitrile], the IC50 in assay [1] (setting [3]) and in assay [2] (setting [4]) was less than 100 nM throughout. Take `COc1nc(Nc2nccc(-c3ccc(OC4CCOCC4)c(C#N)c3)n2)ccc1C(=O)N1CCNC(=O)C1` [Example 6, 5-{2-[6-methoxy-5-(3-oxo-piperazine-1-carbonyl)-pyridin-2-ylamino]-pyrimidin-4-yl}-2-(tetrahydro-pyran-4-yloxy)-benzonitrile]: the IC50 in assay [1] (setting [3]) and in assay [2] (setting [4]) was less than 100 nM each time.

Consider `COc1nc(Nc2nccc(-c3ccc(OC4CCOCC4)c(C#N)c3)n2)ccc1C(=O)N1CC2CC(C1)O2` [Example 7, 5-(2-[[6-methoxy-5-([6-oxa-3-azabicyclo[3.1.1]heptan-3-yl]carbonyl)pyridin-2-yl]amino]pyrimidin-4-yl)-2-(oxan-4-yloxy)benzonitrile], for which the IC50 in assay [1] was less than 100 nM; in assay [2] (IKKε_IC50, 10 point 1:4 dose response), less than 100 nM.

For the molecule `COc1nc(Nc2nccc(-c3ccc(OC4CCOCC4)c(C#N)c3)n2)ccc1C(=O)NC1C2COCC21` (stereo not shown) [Example 8, 6-([4-[3-cyano-4-(oxan-4-yloxy)phenyl]pyrimidin-2-yl]amino)-2-methoxy-N-[3-oxabicyclo[3.1.0]hexan-6-yl]pyridine-3-carboxamide], the IC50 in assay [1] (setting [3]) and in assay [2] (setting [4]) was less than 100 nM each time. Turning to `COc1nc(Nc2nccc(-c3ccc(OC4CCOCC4)c(C#N)c3)n2)ccc1C(=O)NC1CCCC1O` (stereo not shown) [Example 9, 6-{4-[3-Cyano-4-(tetrahydro-pyran-4-yloxy)-phenyl]-pyrimidin-2-ylamino}-N-(2-hydroxy-cyclopentyl)-2-methoxy-nicotinamide], the IC50 in assay [1] (setting [3]) and in assay [2] (setting [4]) was less than 100 nM throughout. Consider `COc1nc(Nc2nccc(-c3ccc(O[C@H]4CCN(C(=O)[C@H](C)O)CC4(F)F)c(C#N)c3)n2)ccc1N1CCN(C2COC2)CC1` [Example 121, 2-[[(4S)-3,3-difluoro-1-[(2S)-2-hydroxypropanoyl]piperidin-4-yl]oxy]-5-[2-([6-methoxy-5-[4-(oxetan-3-yl)piperazin-1-yl]pyridin-2-yl]amino)pyrimidin-4-yl]benzonitrile], for which the IC50 in assay [1] (setting [3]) is less than 100 nM.

Values taken from US20230019491A1, “PYRIMIDINE TBK/IKKe INHIBITOR COMPOUNDS AND USES THEREOF” (Merck Patent GmbH, priority 2017, published 2023).
